Assay results from the NIST ThermoML archive (doi:10.1021/acs.jced.8b00554).

Assay: xn = mol fraction of the nth substance listed
Details: Liquid, Vibrating tube method

CCCCCCCCC [nonane] + CCCO
mass density [kg/m3]
Details	353.15 K	363.15 K
100 kPa, x2 = 0.1231	–	655.98
100 kPa, x2 = 0.2315	–	657.04
100 kPa, x2 = 0.3229	–	658.57
100 kPa, x2 = 0.4272	–	662.45
100 kPa, x2 = 0.7021	–	683
100 kPa, x2 = 0.8941	–	710.52
1000 kPa, x2 = 0.1231	–	657.23
1000 kPa, x2 = 0.8941	–	710.94
1010 kPa, x2 = 0.2315	–	659.34
1010 kPa, x2 = 0.4272	–	664.09
1010 kPa, x2 = 0.7021	–	683.53
1020 kPa, x2 = 0.3229	–	660.57
2010 kPa, x2 = 0.1231	–	658.47
2010 kPa, x2 = 0.2315	–	660.57
2010 kPa, x2 = 0.3229	–	661.82
2010 kPa, x2 = 0.4272	–	665.32
2010 kPa, x2 = 0.7021	–	684.79
2010 kPa, x2 = 0.8941	–	712.1
3010 kPa, x2 = 0.2315	–	661.79
3010 kPa, x2 = 0.3229	–	663.05
3010 kPa, x2 = 0.7021	–	686.04
3010 kPa, x2 = 0.8941	–	713.33
3020 kPa, x2 = 0.1231	–	659.67
3020 kPa, x2 = 0.4272	–	666.57
4010 kPa, x2 = 0.1231	–	660.89
4010 kPa, x2 = 0.3229	–	664.28
4010 kPa, x2 = 0.4272	–	667.83
4010 kPa, x2 = 0.7021	–	687.34
4010 kPa, x2 = 0.8941	–	714.55
4020 kPa, x2 = 0.2315	–	663.04
5000 kPa, x2 = 0.4272	–	669.09
5000 kPa, x2 = 0.7021	–	688.61
5010 kPa, x2 = 0.1231	–	662.09
5010 kPa, x2 = 0.2315	–	664.23
5010 kPa, x2 = 0.3229	–	665.52
5010 kPa, x2 = 0.8941	–	715.78
6000 kPa, x2 = 0.7021	–	689.86
6010 kPa, x2 = 0.2315	–	665.41
6010 kPa, x2 = 0.4272	–	670.36
6010 kPa, x2 = 0.8941	–	717.03
6020 kPa, x2 = 0.1231	–	663.3
6020 kPa, x2 = 0.3229	–	666.76
7000 kPa, x2 = 0.3229	–	667.99
7000 kPa, x2 = 0.7021	–	691.15
7010 kPa, x2 = 0.1231	–	664.48
7010 kPa, x2 = 0.2315	–	666.62
7020 kPa, x2 = 0.4272	–	671.62
7020 kPa, x2 = 0.8941	–	718.27
8000 kPa, x2 = 0.3229	–	669.23
8000 kPa, x2 = 0.7021	–	692.44
8010 kPa, x2 = 0.8941	–	719.48
8020 kPa, x2 = 0.1231	–	665.72
8020 kPa, x2 = 0.2315	–	667.87
8020 kPa, x2 = 0.4272	–	672.88
9000 kPa, x2 = 0.2315	–	669.09
9000 kPa, x2 = 0.3229	–	670.48
9010 kPa, x2 = 0.7021	–	693.71
9010 kPa, x2 = 0.8941	–	720.71
9020 kPa, x2 = 0.1231	–	666.89
9020 kPa, x2 = 0.4272	–	674.14
10010 kPa, x2 = 0.1231	–	668.07
10010 kPa, x2 = 0.2315	–	670.27
10010 kPa, x2 = 0.3229	–	671.75
10010 kPa, x2 = 0.4272	–	675.41
10010 kPa, x2 = 0.7021	–	694.96
10010 kPa, x2 = 0.8941	–	721.93
11000 kPa, x2 = 0.1231	679.16	–
11000 kPa, x2 = 0.4272	688.79	–
11010 kPa, x2 = 0.1231	–	669.29
11010 kPa, x2 = 0.2315	682.07	671.48
11010 kPa, x2 = 0.3229	–	672.98
11010 kPa, x2 = 0.4272	–	676.62
11010 kPa, x2 = 0.7021	709.06	–
11010 kPa, x2 = 0.8941	735.52	723.15
11020 kPa, x2 = 0.3229	684.47	–
11020 kPa, x2 = 0.7021	–	696.2
12000 kPa, x2 = 0.3229	685.59	674.18
12000 kPa, x2 = 0.7021	710.18	697.42
12010 kPa, x2 = 0.1231	680.24	670.44
12010 kPa, x2 = 0.2315	683.2	672.7
12010 kPa, x2 = 0.4272	689.92	677.87
12010 kPa, x2 = 0.8941	736.6	724.32
13000 kPa, x2 = 0.4272	–	679.08
13000 kPa, x2 = 0.8941	–	725.44
13010 kPa, x2 = 0.1231	681.32	671.61
13010 kPa, x2 = 0.3229	–	675.41
13010 kPa, x2 = 0.4272	691.03	–
13010 kPa, x2 = 0.7021	711.31	698.65
13010 kPa, x2 = 0.8941	737.63	–
13020 kPa, x2 = 0.2315	684.28	673.89
13020 kPa, x2 = 0.3229	686.69	–
14000 kPa, x2 = 0.3229	687.76	676.57
14000 kPa, x2 = 0.4272	692.13	–
14000 kPa, x2 = 0.8941	738.72	–
14010 kPa, x2 = 0.1231	682.37	–
14010 kPa, x2 = 0.2315	685.35	–
14010 kPa, x2 = 0.4272	–	680.27
14010 kPa, x2 = 0.7021	–	699.83
14010 kPa, x2 = 0.8941	–	726.63
14020 kPa, x2 = 0.1231	–	672.74
14020 kPa, x2 = 0.2315	–	675.04
14020 kPa, x2 = 0.7021	712.38	–
15000 kPa, x2 = 0.2315	–	676.17
15000 kPa, x2 = 0.4272	693.19	–
15010 kPa, x2 = 0.1231	683.4	673.85
15010 kPa, x2 = 0.3229	688.83	677.73
15010 kPa, x2 = 0.4272	–	681.42
15010 kPa, x2 = 0.7021	713.45	–
15010 kPa, x2 = 0.8941	–	727.76
15020 kPa, x2 = 0.2315	686.39	–
15020 kPa, x2 = 0.7021	–	700.99
15020 kPa, x2 = 0.8941	739.75	–
16000 kPa, x2 = 0.2315	687.43	677.27
16000 kPa, x2 = 0.8941	740.76	–
16010 kPa, x2 = 0.1231	684.41	674.91
16010 kPa, x2 = 0.3229	–	678.86
16010 kPa, x2 = 0.4272	694.24	682.56
16010 kPa, x2 = 0.7021	714.52	–
16020 kPa, x2 = 0.3229	689.88	–
16020 kPa, x2 = 0.7021	–	702.15
16020 kPa, x2 = 0.8941	–	728.86
17000 kPa, x2 = 0.1231	–	676
17000 kPa, x2 = 0.8941	741.78	729.95
17010 kPa, x2 = 0.1231	685.42	–
17010 kPa, x2 = 0.2315	–	678.41
17010 kPa, x2 = 0.3229	690.92	–
17010 kPa, x2 = 0.4272	695.25	683.64
17010 kPa, x2 = 0.7021	715.56	–
17020 kPa, x2 = 0.2315	688.48	–
17020 kPa, x2 = 0.3229	–	679.98
17020 kPa, x2 = 0.7021	–	703.28
18000 kPa, x2 = 0.3229	691.91	–
18000 kPa, x2 = 0.7021	716.55	–
18010 kPa, x2 = 0.1231	686.41	677.05
18010 kPa, x2 = 0.2315	689.45	679.45
18010 kPa, x2 = 0.4272	–	684.75
18010 kPa, x2 = 0.7021	–	704.37
18010 kPa, x2 = 0.8941	742.76	–
18020 kPa, x2 = 0.3229	–	681.03
18020 kPa, x2 = 0.4272	696.27	–
18020 kPa, x2 = 0.8941	–	731.02
19000 kPa, x2 = 0.2315	–	680.43
19000 kPa, x2 = 0.3229	692.9	–
19000 kPa, x2 = 0.4272	697.25	–
19000 kPa, x2 = 0.7021	–	705.41
19010 kPa, x2 = 0.1231	687.34	678.04
19010 kPa, x2 = 0.2315	690.38	–
19010 kPa, x2 = 0.3229	–	682.1
19010 kPa, x2 = 0.4272	–	685.8
19010 kPa, x2 = 0.8941	743.72	732.06
19020 kPa, x2 = 0.7021	717.54	–
20000 kPa, x2 = 0.1231	688.24	–
20000 kPa, x2 = 0.2315	691.33	–
20000 kPa, x2 = 0.3229	693.81	–
20010 kPa, x2 = 0.1231	–	679
20010 kPa, x2 = 0.2315	–	681.42
20010 kPa, x2 = 0.3229	–	683.05
20010 kPa, x2 = 0.4272	698.23	686.85
20010 kPa, x2 = 0.7021	718.51	–
20020 kPa, x2 = 0.7021	–	706.48
20020 kPa, x2 = 0.8941	744.66	733.04
